Data: patent US20180244616A1, “LACTAM COMPOSITIONS” (Conopco, Inc., a/b/a UNILEVER, priority 2015, published 2018)

Assays:
gram-negative bacteria = test: anti-bacterial activity against gram-negative bacteria; type: cell-based
gram-positive bacteria = test: anti-bacterial activity against gram-positive bacteria; type: cell-based
[1] = toxicity compared to other lactams having anti-microbial activity

Structure (SMILES): C=C1NC(=O)C=C1c1ccc(Cl)cc1 [4-(4-chlorophenyl)-5-methylene-pyrrol-2-one]
- anti-bacterial activity against gram-negative bacteria (gram-negative bacteria): shows activity
- anti-bacterial activity against gram-positive bacteria (gram-positive bacteria): shows activity
- toxicity [1]: unexpectedly low toxicity

Structure (SMILES): C=C1NC(=O)C=C1c1ccc(C)cc1 [5-methylene-4-(p-tolyl)pyrrol-2-one]
- anti-bacterial activity against gram-negative bacteria (gram-negative bacteria): shows selective activity
- toxicity [1]: unexpectedly low toxicity
